According to article PMC10216263, “Favorable Preclinical Pharmacological Profile of a Novel Antimalarial Pyrrolizidinylmethyl Derivative of 4-amino-7-chloroquinoline with Potent In Vitro and In Vivo Activities” (Biomolecules, 2023):
Where two headings read alike, the source gives them in different places.

Legend:
[1] = CD1, mouse, in vivo, po, 10 mg/kg
P. berghei ANKA = assay: Four-day suppressive Peters' test, oral; type: in vivo, P. berghei in CD1 mice; settings: once a day for 4 days, parasitemia day 4, CD1 mice
Procedure: (§1) Groups of five CD1 mice were inoculated i.v., with 4 × 10^6 infected erythrocytes/mice. Compounds, dissolved in standard suspending formula (SSV) (0.5% sodium carboxymethylcellulose, 0.5% benzyl alcohol, 0.4% Tween 80, and 0.9% NaCl), were administered once a day for 4 days via oral gavage, starting two hours post-infection. […] Parasitemia was evaluated using microscopic examination of Giemsa-stained blood films taken on day four, processed using MICROSOFT® EXCEL spreadsheets (Microsoft Corp., Redmond, WA, USA), and expressed as percentages of inhibition from the arithmetic mean parasitemia of each group in relation to the untreated group. ED50 and ED90 values were calculated using GraphPad Prism 6 (GraphPad Software Inc., La Jolla, CA, USA).

[2] = tested on: P. falciparum V1-S (CQ-R); assay: In vitro antimalarial activity, [3H]-hypoxanthine incorporation (LSHTM); type: cell-based; settings: Plasmodium falciparum; 72 h, [3H]-hypoxanthine incorporation, mean of 3 experiments; read-out: P. falciparum IC50 nM, V1-S (CQ-R)
P. chabaudi AS = assay: Four-day suppressive Peters' test, oral; type: in vivo, P. chabaudi in CD1 mice; settings: once a day for 4 days, parasitemia day 4, CD1 mice
Procedure: as §1

P. falciparum 3D7 (CQ-S) = assay: In vitro combination study (isobologram, ∑FIC); type: cell-based
7-day oral DRF in dog = type: in vivo, Beagle dog; settings: dogs, 15 and 30 mg/kg/day oral, 7 days
Procedure: (§2) Seven days oral DRF in rats and dog, and five days oral DRF in Non-Human Primates (NHP) were performed using Sprague Dawley rats (n = 3/time point) of both sexes, one male and one female dog Beagle (Marshall/Green Hill) and one male and one female monkeys/Cynomolgus (Noveprim Ltd., Mahebourg Mauritius,). MG3 was administered as oral suspension in 0.5% methocel in water (400 cP viscosity) at the following doses: 30, 60 and 120 mg/kg/day for 7 days (rat), 15 and 30 mg/kg/days for 7 days (dog) and 25, 50 and 75 mg/kg/day (NHP). No Observed Effects Levels (NOEL) were determined. Mortality, behavior, and general conditions were observed daily. Body weight was recorded pre-test, and on Days 1, 4 and 7. Food consumption was recorded from Days 1 to 4 and 4 to 7. Hematological and clinical chemistry examinations were performed on Day 8. All animals were sacrificed under anesthesia at the end of the treatment period on Day 8 of study. Post-mortem examinations included necropsy, collection, and histological examination performed of selected organs/tissues.

P. falciparum D10 (CQ-S) = tested on: P. falciparum D10 (CQ-S); design: method as in PMID 18538567; settings: 72 h incubation, pLDH method, mean of 3 experiments; cited from earlier work
[3] = tested on: Pf-3D7 gametocytes >95% Stage V; assay: Gametocyte luciferase assay (3D7elo1-pfs16-CBG99); type: cell-based, P. falciparum; settings: Plasmodium falciparum, 3D7, read-out: Pf-3D7 gametocytes IC50 (nM), >95% Stage V
Procedure: In vitro activity of MG3 against P falciparum sexual gametocyte stages […]
luminescent transgenic 3D7 strain (3D7elo1-pfs16-CBG99) at two different stages (I-III and V) using the […]
Briefly, 100 µL of culture medium were removed from each well to increase hematocrit; 70 µL of resuspended culture were transferred to a black 96-well plate; 70 µL of D-luciferin (1 mM in citrate buffer 0.1 M, pH 5.5) were added. Luminescence measurements were performed after 10 min with 500 ms integration time using a Synergy4-BioTek reader.
(1 picture or pasted object on this page, not shown here)

[4] = 7-day oral dose range finding (DRF) and systemic exposure in rats; type: in vivo, Sprague Dawley rats
Procedure: as §2
Systemic exposure was measured in three additional rats/sex/group at different time-points up to 24 and 48 h after the treatment and on Days 1 and 7, respectively.

[5] = Oral DRF and systemic exposure in NHP; type: in vivo, Cynomolgus monkeys; settings: for AUC(0-t) / Cmax / Tmax: po, 50 mg/kg/day; for half-life: plasma, Day 5, 50 mg/kg/day oral, read-out: t1/2, z (converted)
Procedure: as §2

P. falciparum K1 (CQ-R) = assay: In vitro combination study (isobologram, ∑FIC); type: cell-based
[6] = tested on: P. falciparum FCR3 (CQ-R); assay: In vitro antimalarial activity, [3H]-hypoxanthine incorporation (LSHTM); type: cell-based; settings: Plasmodium falciparum, FCR3; 72 h, [3H]-hypoxanthine incorporation, mean of 3 experiments; read-out: P. falciparum IC50 nM, FCR3 (CQ-R)
[7] = male, Sprague Dawley, rat, in vivo, po, 30 mg/kg/day
[8] = both sexes, cynomolgus monkey, in vivo
[9] = female, cynomolgus monkey, in vivo
[10] = male, cynomolgus monkey, in vivo

Clc1ccc2c(NCC34CCCN3CCC4)ccnc2c1 [MG3, 7-Chloro-N-((hexahydro-1H-pyrrolizin-7a-yl)methyl)quinolin-4-amine]
AUClast [1]: 41,067 min*ng/mL
ED50 (P. berghei ANKA; Plasmodium berghei, 96 h, read-out: ED50 (95% CI) Mean): 5.22 mg/kg
ED90 (95% CI) Mean (P. berghei ANKA): 7.55 (6.38–8.72) mg/kg
IC50 [2]: 25.7 nM
ED50 (P. chabaudi AS; Plasmodium chabaudi, 96 h, read-out: ED50 (95% CI) Mean): 4.69 mg/kg
ED90 (95% CI) Mean (P. chabaudi AS): 9.80 (8.86–10.6) mg/kg
Mean ∑FIC50 (95% CI) (P. falciparum 3D7 (CQ-S); in combination with ASN, 3D7, IC50 level): 1.43 (1.30 – 1.55)
Mean ∑FIC50 (95% CI) (P. falciparum 3D7 (CQ-S); in combination with DHA, 3D7, IC50 level): 1.49 (1.33 – 1.65)
Mean ∑FIC50 (95% CI) (P. falciparum 3D7 (CQ-S); in combination with RKA-182, 3D7, IC50 level): 1.45 (1.17 – 1.73)
interaction (isobologram) (P. falciparum 3D7 (CQ-S); in combination with azitromycin, 3D7 (CQ-S)): additive
toxicity finding (7-day oral DRF in dog): associated with mortality one week after last treatment due to acute renal failure
IC50 (P. falciparum D10 (CQ-S)): 30.6 nM
IC50 [3]: 10700 ± 2790 nM
mortality ([4]; 30, 60, and 120 mg/kg/day oral, 7 days): no mortality occurred
MTD at 7 days ([4]; both sexes, Sprague Dawley, rat, in vivo, oral, 7 days, rats, read-out: maximum tolerated dose (MTD)): 120 mg/kg/day
AUC(0-t) ([4]; female, Sprague Dawley, rat, in vivo, po, 30 mg/kg/day, AUC0–24): 2560 ± 650 ng·h/mL
AUC(0-t) ([4]; female, Sprague Dawley, rat, in vivo, po, 30 mg/kg/day, AUC0–48): 3800 ± 1000 ng·h/mL
Cmax ([4]; female, Sprague Dawley, rat, in vivo, po, 30 mg/kg/day): 149 ± 34 ng/mL
AUC(0-t) ([4]; female, Sprague Dawley, rat, in vivo, po, 60 mg/kg/day, AUC0–24): 8630 ± 870 ng·h/mL
AUC(0-t) ([4]; female, Sprague Dawley, rat, in vivo, po, 60 mg/kg/day, AUC0–48): 15000 ± 900 ng·h/mL
Cmax ([4]; female, Sprague Dawley, rat, in vivo, po, 60 mg/kg/day): 646 ± 201 ng/mL
AUC(0-t) ([4]; female, Sprague Dawley, rat, in vivo, po, 120 mg/kg/day, AUC0–24): 19400 ± 7500 ng·h/mL
AUC(0-t) ([4]; female, Sprague Dawley, rat, in vivo, po, 120 mg/kg/day, AUC0–48): 29800 ± 9600 ng·h/mL
Cmax ([4]; female, Sprague Dawley, rat, in vivo, po, 120 mg/kg/day): 1570 ± 270 ng/mL
AUC(0-t) ([4]; female, Sprague-Dawley, rat, in vivo, po, 30 mg/kg/day, AUC0–24): 2530 ± 500 ng·h/mL
AUC(0-t) ([4]; female, Sprague-Dawley, rat, in vivo, po, 60 mg/kg/day, AUC0–24): 4740 ± 770 ng·h/mL
Cmax ([4]; female, Sprague-Dawley, rat, in vivo, po, 60 mg/kg/day): 259 ± 46 ng/mL
AUC(0-t) ([4]; female, Sprague-Dawley, rat, in vivo, po, 120 mg/kg/day, AUC0–24): 5210 ± 1600 ng·h/mL
Cmax ([4]; female, Sprague-Dawley, rat, in vivo, po, 120 mg/kg/day): 411 ± 288 ng/mL
AUC0–24 [4, 7]: 1880 ± 190 ng·h/mL
AUC(0-t) ([4]; male, Sprague Dawley, rat, in vivo, po, 30 mg/kg/day, AUC0–24): 1880 ± 380 ng·h/mL
AUC(0-t) ([4]; male, Sprague Dawley, rat, in vivo, po, 30 mg/kg/day, AUC0–48): 2460 ± 550 ng·h/mL
Cmax [4, 7]: 140 ± 30 ng/mL
AUC(0-t) ([4]; male, Sprague Dawley, rat, in vivo, po, 60 mg/kg/day, AUC0–24): 5090 ± 450 ng·h/mL
AUC(0-t) ([4]; male, Sprague Dawley, rat, in vivo, po, 60 mg/kg/day, AUC0–48): 7330 ± 310 ng·h/mL
Cmax ([4]; male, Sprague Dawley, rat, in vivo, po, 60 mg/kg/day): 321 ± 50 ng/mL
AUC(0-t) ([4]; male, Sprague Dawley, rat, in vivo, po, 120 mg/kg/day, AUC0–24): 17400 ± 3200 ng·h/mL
AUC(0-t) ([4]; male, Sprague Dawley, rat, in vivo, po, 120 mg/kg/day, AUC0–48): 27500 ± 3900 ng·h/mL
Cmax ([4]; male, Sprague Dawley, rat, in vivo, po, 120 mg/kg/day): 1090 ± 260 ng/mL
AUC(0-t) ([4]; male, Sprague-Dawley, rat, in vivo, po, 60 mg/kg/day, AUC0–24): 3530 ± 180 ng·h/mL
Cmax ([4]; male, Sprague-Dawley, rat, in vivo, po, 60 mg/kg/day): 220 ± 10 ng/mL
AUC(0-t) ([4]; male, Sprague-Dawley, rat, in vivo, po, 120 mg/kg/day, AUC0–24): 3840 ± 700 ng·h/mL
Cmax ([4]; male, Sprague-Dawley, rat, in vivo, po, 120 mg/kg/day): 209 ± 49 ng/mL
food consumption ([4]; rat, in vivo): Minimal to moderate decrease in food consumption
clinical chemistry on Day 8 ([4]; rat, in vivo, 120 mg/kg/day): slight to moderate increase in ALT and AST
systemic exposure in females higher than in males ([4]; rat, in vivo, po): about two-fold
mortality and liver toxicity ([4]; up to 60 mg/kg, 7-day oral toxicity study): no mortality and no clinical evidence of liver toxicity
tolerability ([5]; NHP, 50 mg/kg/day for five consecutive days): tolerated with limited clinical signs
toxicity finding ([5]; NHP, 75 mg/kg/day oral (Phase I, incremental doses)): associated with mortality and severe CNS-related clinical signs
AUC(0-t) [5, 8]: 896 ± 132 ng·h/mL
Cmax [5, 8]: 70.1 ± 3.68 ng/mL
Tmax [5, 8]: 1.25 ± 1.06 h
MTD at 5 days ([5]; both sexes, cynomolgus monkey, in vivo, NHP, 5-day oral, read-out: maximum tolerated dose (MTD)): 50 mg/kg/day
half-life ([5]; both sexes, cynomolgus monkey, Mean ± SD of male and female NHP): 14.9 ± 10.3 h
half-life ([5]; cynomolgus monkey, Female NHP): 22.2 h
half-life ([5]; cynomolgus monkey, Male NHP): 7.66 h
AUC(0-t) [5, 9]: 989 ng·h/mL
Cmax [5, 9]: 72.7 ng/mL
Tmax [5, 9]: 0.5 h
AUC(0-t) [5, 10]: 802 ng·h/mL
Cmax [5, 10]: 67.5 ng/mL
Tmax [5, 10]: 2 h
Mean ∑FIC50 (95% CI) (P. falciparum K1 (CQ-R); in combination with ASN, K1, IC50 level): 1.25 (0.94 – 1.56)
Mean ∑FIC50 (95% CI) (P. falciparum K1 (CQ-R); in combination with DHA, K1, IC50 level): 1.25 (1.21 – 1.29)
Mean ∑FIC50 (95% CI) (P. falciparum K1 (CQ-R); in combination with RKA-182, K1, IC50 level): 1.24 (0.85 – 1.63)
interaction (isobologram) (P. falciparum K1 (CQ-R); in combination with azitromycin, K1 (CQ-R)): additive
IC50 [6]: 13.2 nM
